Reference: patent US8142829B2, “Beverage composition and method of reducing degradation of monatin” (PepsiCo, Inc., priority 2008, dated 2012)

Tests used:
Assay type in all cases: physicochemical
[1] = Heat treatment of bottled monatin beverage in thermostatically controlled oven, one week at 110° F.
Protocol: (§1) The following illustrates specific embodiments of the present invention (i.e., embodiments using EMIQ) but are not intended to limit it. All percentages are by weight unless otherwise stated. Heat treatment of bottled beverage was conducted in a thermostatically controlled oven. UV exposure of bottled beverage was conducted within an Atlas CI 5000 with Xenon arc lamp in a thermostatically controlled oven.
Additional analyses of the lemon/lime (“L/L”) flavored beverages above were conducted to determine formation of lactone (reversible) or lactam (irreversible) from monatin. The accumulation of the two degradation products would reduce sweetness impact over time and reduce consumer acceptance of a product containing a beverage comprising monatin. […] The amounts of ascorbic acid (where indicated) was 333 ppm, and the amount of EMIQ (where indicated) was 7.50 ppm (50 uL of 15% EMIQ as San-Melin AO-3000=7.5 ppm).

[2] = UV exposure of bottled monatin beverage, Atlas CI 5000 with Xenon arc lamp, 24 hours at 86° F.
Protocol: as §1
Additional analyses of the lemon/lime (“L/L”) flavored beverages above were conducted to determine formation of lactone (reversible) or lactam (irreversible) from monatin.
UV exposure of bottled beverage was conducted within an Atlas CI 5000 with Xenon arc lamp in a thermostatically controlled oven.

[3] = Monatin stabilization / degradation observations in beverage, conditions not stated; details: for monatin stabilization ability (rank order): rank by number of hydroxyl groups on the aryl ring

**Q.** Which results are given for O=C1O[C@H]([C@@H](O)CO)C(O)=C1O [ascorbic acid]?
**A.** Color Hue Change, 1 week @ 110° F. ([1]; Lemon/Lime Carbonated Soft Drink, 265 ppm sodium benzoate, 333 ppm ascorbic acid where indicated, 30 ppm CaNa2EDTA, 50 ppm monatin): No; formation of lactam from monatin ([1]; low pH matrix, heat stress conditions): not ascorbic acid; protection against pink coloration and off-flavor development ([2]; 24 h of UV exposure): protects against pink coloration and off-flavor development; Lactam formation ([2]; Cola CSD, 24 h UV exposure, 30 ppm myricitrin, 100 ppm EMIQ, 300 ppm ascorbic acid or none): 2.9 ppm; Monatin + lactone ([2]; L/L CSD, 24 h UV exposure, 30 ppm myricitrin, 100 ppm EMIQ, 300 ppm ascorbic acid or none): 37.7 ppm; Color Hue Change, UV 24 hours @ 86° F. ([2]; Lemon/Lime Carbonated Soft Drink, 265 ppm sodium benzoate, 333 ppm ascorbic acid where indicated, 30 ppm CaNa2EDTA, 50 ppm monatin, Yes* = pink to rust color develops): No; formation of lactam and color hue change with ascorbic acid ([3]; non-colored carbonated soft drink): results in the formation of lactam, a degradation product of monatin, and an undesirable color hue change

**Q.** Which “monatin stabilization ability (rank order)” value (from here on “monatin stabilization ability”) [3] does the source give for O=C(O)/C=C/c1ccc(O)c(O)c1 [caffeic acid] here?
**A.** Its value is “caffeic acid (2 hydroxyl groups)>ferulic acid>coumaric acid>cinnamic acid (no hydroxyl groups)”.

**Q.** With O=C(O)C=Cc1ccccc1 [cinnamic acid] as the compound, how does the “monatin stabilization ability” value [3] read?
**A.** The value was “caffeic acid (2 hydroxyl groups)>ferulic acid>coumaric acid>cinnamic acid (no hydroxyl groups)”.

**Q.** For O=C(O)/C=C/c1ccc(O)cc1 [coumaric acid], which “monatin stabilization ability” value [3] is on record?
**A.** Its value is “caffeic acid (2 hydroxyl groups)>ferulic acid>coumaric acid>cinnamic acid (no hydroxyl groups)”.

**Q.** For COc1cc(/C=C/C(=O)O)ccc1O [ferulic acid], which “monatin stabilization ability” value [3] is on record?
**A.** Its value is “caffeic acid (2 hydroxyl groups)>ferulic acid>coumaric acid>cinnamic acid (no hydroxyl groups)”.
